Laboratory results reported in US20040204577A1, “Novel peptide-forming enzyme gene” (Ajinomoto Co., Inc., priority 2003, published 2004).
Where a SMILES comes first, the peptide text is derived from it. [ ]: non-standard residue; d: D form.

Assays:
[1] = tested on: peptide-forming enzyme (Mono S fraction enzyme); assay: Enzyme substrate specificity (1)-(10), (13), (14): peptide production; format: biochemical, Empedobacter brevis; design: key to Formed peptide: +: those peptides for which production was confirmed but which were unable to be quantified due to the absence of a standard; a trace amount; settings: pH 9.0, 25° C., 3 hours; for Produced peptide: L-amino acid ester 100 mM, peptide (amine component) 150 mM
Summary of the method: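 Mono S enzyme fraction in 100 mM borate buffer (pH 9.0) with 10 mM EDTA and 100 mM carboxy component (amino acid methyl esters or amides); amine components (L-glutamine, amino acids, amino acid amides or methylamine) at 150 mM, or 200 mM L-glutamine with varied esters. Reactions ran at 25° C for 2–3 hours; 0.1% Tween-80 added for Trp/Tyr-OMe.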

[2] = tested on: enzyme derived from Sphingobacterium sp. strain FERM BP-8124 (SP-Sepharose HP fraction enzyme); assay: Enzyme substrate specificity (11), (12): peptide production; format: biochemical; design: key to Produced peptide (Table 15-1) / Produced peptide (Table 15-3) / Produced peptide (Table 15-4): +: those peptides for which production was confirmed but which were unable to be quantified due to the absence of a standard; a trace amount; settings: carboxy component 100 mM, 0.33 units enzyme, pH 9.0, 25° C., 1.5 hours; for Produced peptide (Table 15-4): amides and methylamine; for Produced peptide (Table 15-4) / Produced peptide (Table 15-1) / Produced peptide (Table 15-3) / Produced peptide (Table 16, oligopeptide): amine component 150 mM; for Produced peptide (Table 15-2): L-Gln 150 mM
From the text: Substrate specificity was examined for enzyme derived from Sphingobacterium sp. strain FERM BP-8124 (Depositary institution: the independent administrative corporation, National Institute of Advanced Industrial Science and Technology, International Patent Organism Depositary, Address of depositary institution: Chuo Dai-6, 1-1 Higashi 1-Chome, Tsukuba-shi, Ibaraki-ken, Japan, International deposit date: […] The amounts of various peptides formed in this reaction are shown in Table 15. The “+” mark indicates those peptides for which production was confirmed but which were unable to be quantified due to the absence of a standard, while “tr” indicates a trace amount. Furthermore, Tween-80 was added to the reaction system to a final concentration of 0.1% in the case of using L-Tyr-OMe. In addition, hydrochloride salts were used for all carboxy components. Substrate specificity with respect to oligopeptide production was examined for enzyme derived from Sphingobacterium sp. strain FERM BP-8124 (Depositary institution: the independent administrative corporation, National Institute of Advanced Industrial Science and Technology, International Patent Organism Depositary, Address of depositary institution: Chuo Dai-6, 1-1 Higashi 1-Chome, Tsukuba-shi, Ibaraki-ken, Japan, International deposit date: […] The amounts of each oligopeptide formed in this reaction are shown in Table 16. Furthermore, hydrochloride salts were used for all the carboxy components.

[3] = tested on: microbial cells of Empedobacter brevis strain FERM BP-8113; assay: Production of peptide using microbial cells; format: cell-based; settings: 1 mL cell suspension (100 g/L) + 1 mL buffer with 200 mM carboxy component (hydrochloride) and 400 mM amino acid; borate buffer pH 9.0, 10 mM EDTA; 18° C., 2 hours
Experimental: A 50 mL medium (pH 6.2) containing 5 grams (g) of glucose, 5 g of ammonium sulfate, 1 g of monopotassium phosphate, 3 g of dipotassium phosphate, 0.5 g of magnesium sulfate, 10 g of yeast extract and 10 g of peptone in 1 liter (L) was transferred to a 500 mL Sakaguchi flask and sterilized at 115° C. for 15 minutes. This medium was then inoculated with one loopful cells of Empedobacter brevis strain FERM BP-8113 (Depositary institution: the independent administrative corporation, National Institute of Advanced Industrial Science and Technology, International Patent Organism Depositary, Address of depositary institution: Chuo Dai-6, 1-1 Higashi 1-Chome, Tsukuba-shi, Ibaraki-ken, Japan, International deposit transfer date: Jul. 8, 2002) that had been cultured at 30° C. for 16 hours in the same medium, followed by shake culturing at 30° C. for 16 hours and 120 strokes/min.

[4] = 100 mM L-alanine methyl ester hydrochloride, L-amino acid 150 mM
[5] = L-amino acid amide hydrochloride as carboxy component 100 mM, L-amino acid 150 mM
[6] = L-amino acid methyl ester hydrochloride 100 mM, L-amino acid 150 mM
[7] = L-alanine methyl ester hydrochloride 100 mM, L-amino acid amide hydrochloride 150 mM
[8] = L or D amino acid methyl ester hydrochloride 100 mM, L or D amino acid 150 mM
[9] = amino acid methyl ester hydrochloride 100 mM, methylamine 150 mM
[10] = L-amino acid methyl ester hydrochloride 100 mM, 150 mM L-glutamine

Compound: C[C@H](N)C(=O)N[C@@H](Cc1cnc[nH]1)C(=O)O [L-Ala-L-His] (H-Ala-His-OH)
- Formed peptide [1, 4]: 66.9 mM
- Formed peptide [1, 5]: 3.9 mM
- Produced peptide (Table 15-4) [2]: tr
- Produced peptide (Table 15-1) [2]: 73.6 mM
- Formed peptide [3]: 52.1 mM

Compound: C[C@H](N)C(=O)N[C@@H](CO)C(=O)O [L-Ala-L-Ser] (H-Ala-Ser-OH)
- Formed peptide [1, 4]: 62.5 mM
- Produced peptide (Table 15-1) [2]: 43.8 mM
- Formed peptide [3]: 51.3 mM

Compound: CC(C)C[C@H](NC(=O)[C@@H](N)[C@@H](C)O)C(=O)O [L-Thr-L-Leu] (H-Thr-Leu-OH)
- Formed peptide [1, 6]: 28.4 mM
- Produced peptide (Table 15-3) [2]: 15.3 mM
- Formed peptide [3]: 23.0 mM

Compound: NCC(=O)N[C@@H](Cc1cnc[nH]1)C(=O)O [Gly-L-His] (H-Gly-His-OH)
- Formed peptide [1, 6]: 31.6 mM
- Produced peptide (Table 15-3) [2]: 36.2 mM
- Formed peptide [3]: 22.1 mM

Compound: CSCC[C@H](N)C(=O)N[C@@H](Cc1ccccc1)C(=O)O [L-Met-L-Phe] (H-Met-Phe-OH)
- Produced peptide (Table 15-3) [2]: 8.9 mM
- Formed peptide [3]: 28.5 mM

Compound: CC[C@H](C)[C@H](N)C(=O)N[C@@H](CCSC)C(=O)O [L-Ile-L-Met] (H-Ile-Met-OH)
- Formed peptide [1, 6]: 10.0 mM
- Produced peptide (Table 15-3) [2]: 5.1 mM
- Formed peptide [3]: 8.3 mM

Compound: CSCC[C@H](NC(=O)[C@H](C)N)C(=O)O [L-Ala-L-Met] (H-Ala-Met-OH)
- Formed peptide [1, 4]: 83.3 mM
- Formed peptide [1, 5]: 3.4 mM
- Produced peptide (Table 15-4) [2]: tr
- Produced peptide (Table 15-1) [2]: 86.9 mM
- Formed peptide [3]: 68.3 mM

Compound: C[C@H](N)C(=O)N[C@@H](Cc1ccccc1)C(N)=O [L-Ala-L-Phe-NH2]
- Formed peptide [1, 7]: 12.2 mM
- Produced peptide (Table 15-4) [2]: 27.1 mM

Compound: C[C@H](N)C(=O)N[C@H](CO)C(=O)O [L-Ala-D-Ser] (H-Ala-[dS]-OH)
- Formed peptide [1, 8]: 5.4 mM
- Produced peptide (Table 15-1) [2]: 3.3 mM

Compound: C[C@H](N)C(=O)N[C@@H](CCCN=C(N)N)C(=O)O [L-Ala-L-Arg] (H-Ala-Arg-OH)
- Formed peptide [1, 4]: 88.0 mM
- Produced peptide (Table 15-1) [2]: 72.2 mM
- Formed peptide [3]: 72.1 mM

Compound: L-Ala-Gly-L-Ala
- Produced peptide [1]: 25.9 mM
- Produced peptide (Table 16, oligopeptide) [2]: 35.1 mM

Compound: CNC(=O)C(C)N [L-Ala-methylamine]
- Formed peptide [1, 9]: 0.3 mM
- Produced peptide (Table 15-4) [2]: 0.6 mM

Compound: CSCC[C@H](NC(=O)[C@@H](N)CCCN=C(N)N)C(=O)O [L-Arg-L-Met] (H-Arg-Met-OH)
- Formed peptide [1, 6]: 0.7 mM
- Produced peptide (Table 15-3) [2]: tr

Compound: C[C@@H](N)C(=O)N[C@H](CO)C(=O)O [D-Ala-D-Ser] (H-[dA]-[dS]-OH)
- Formed peptide [1, 8]: 0.2 mM
- Produced peptide (Table 15-1) [2]: 5.5 mM

Compound: C[C@H](N)C(=O)N[C@@H](C)C(N)=O [L-Ala-L-Ala-NH2] (H-Ala-Ala-NH2)
- Formed peptide [1, 7]: 8.3 mM
- Produced peptide (Table 15-4) [2]: 9.2 mM

Compound: NC(=O)CC[C@H](NC(=O)[C@@H](N)CCC(N)=O)C(=O)O [L-Gln-L-Gln] (H-Gln-Gln-OH)
- Formed peptide [1, 10]: 0.3 mM
- Produced peptide (Table 15-2) [2]: 0.1 mM

Compound: NC(=O)CC[C@H](NC(=O)[C@@H](N)CO)C(=O)O [L-Ser-L-Gln] (H-Ser-Gln-OH)
- Formed peptide [1, 10]: 24.0 mM
- Produced peptide (Table 15-2) [2]: 12.9 mM

Compound: Gly-L-Ala-L-Tyr
- Produced peptide [1]: 1.7 mM
- Produced peptide (Table 16, oligopeptide) [2]: 0.6 mM

Compound: C[C@H](N)C(=O)NCC(N)=O [L-Ala-Gly-NH2] (H-Ala-Gly-NH2)
- Formed peptide [1, 7]: 7.4 mM
- Produced peptide (Table 15-4) [2]: 15.1 mM

Compound: NCC(=O)N[C@@H](CO)C(=O)O [Gly-L-Ser] (H-Gly-Ser-OH)
- Formed peptide [1, 6]: 44.2 mM
- Produced peptide (Table 15-3) [2]: 53.8 mM

Compound: CC(C)[C@H](N)C(=O)N[C@@H](CCC(N)=O)C(=O)O [L-Val-L-Gln] (H-Val-Gln-OH)
- Formed peptide [1, 10]: 15.4 mM
- Produced peptide (Table 15-2) [2]: 8.2 mM

Compound: C[C@H](N)C(=O)N1CCC[C@H]1C(=O)O [L-Ala-L-Pro] (H-Ala-Pro-OH)
- Formed peptide [1, 4]: tr
- Produced peptide (Table 15-1) [2]: 1.5 mM

Compound: CNC(=O)[C@@H](N)[C@@H](C)O [L-Thr-methylamine]
- Formed peptide [1, 9]: 0.2 mM
- Produced peptide (Table 15-4) [2]: 0.3 mM

Compound: NCC(=O)N[C@@H](CCC(N)=O)C(=O)O [Gly-L-Gln] (H-Gly-Gln-OH)
- Formed peptide [1, 10]: 54.7 mM
- Produced peptide (Table 15-2) [2]: 61.1 mM

Compound: CC(C)C[C@H](NC(=O)[C@H](C)N)C(=O)O [L-Ala-L-Leu] (H-Ala-Leu-OH)
- Formed peptide [1, 4]: 45.3 mM
- Produced peptide (Table 15-1) [2]: 33.0 mM
- Formed peptide [3]: 38.2 mM

Compound: CSCC[C@H](N)C(=O)N[C@@H](CCC(N)=O)C(=O)O [L-Met-L-Gln] (H-Met-Gln-OH)
- Formed peptide [1, 10]: 12.0 mM
- Produced peptide (Table 15-2) [2]: 32.6 mM

Compound: L-Ala-L-Ala-L-Ala-L-Ala
- Produced peptide [1]: 44.5 mM
- Produced peptide (Table 16, oligopeptide) [2]: 30.1 mM

Compound: NC(=O)CC[C@H](NC(=O)[C@@H](N)Cc1ccccc1)C(=O)O [L-Phe-L-Gln]
- Formed peptide [1, 5]: 0.2 mM
- Formed peptide [1, 10]: 0.9 mM
- Produced peptide (Table 15-2) [2]: 0.8 mM

Compound: N[C@@H](CO)C(=O)N[C@@H](CO)C(=O)O [L-Ser-L-Ser] (H-Ser-Ser-OH)
- Formed peptide [1, 6]: 38.0 mM
- Produced peptide (Table 15-3) [2]: 9.9 mM
- Formed peptide [3]: 29.0 mM

Compound: L-Ala-L-Ala-L-Ala
- Produced peptide [1]: 57.5 mM
- Produced peptide (Table 16, oligopeptide) [2]: 41.1 mM

Compound: C[C@H](N)C(=O)N[C@@H](Cc1ccccc1)C(=O)O [L-Ala-L-Phe]
- Formed peptide [1, 4]: 74.4 mM
- Produced peptide (Table 15-1) [2]: 69.5 mM
- Formed peptide [3]: 62.4 mM

Compound: L-Thr-Gly-Gly
- Produced peptide [1]: 83.0 mM
- Produced peptide (Table 16, oligopeptide) [2]: 8.4 mM

Compound: N[C@@H](CO)C(=O)N[C@@H](Cc1ccccc1)C(=O)O [L-Ser-L-Phe]
- Formed peptide [1, 6]: 20.3 mM
- Produced peptide (Table 15-3) [2]: 4.3 mM

Compound: CSCC[C@H](NC(=O)[C@@H](N)CO)C(=O)O [L-Ser-L-Met] (H-Ser-Met-OH)
- Formed peptide [1, 6]: 12.5 mM
- Produced peptide (Table 15-3) [2]: 7.6 mM
